In patent publication US20220298253A1, “TREATMENT OF RMS BY SWITCHING THERAPY” (Novartis AG, priority 2019, published 2022):
Entries after “also recorded” stand apart in the source; their conditions may differ. Like-named read-outs stand apart in the source and are kept apart here.

Legend:
MS patients [1] = assay: ASCLEPIOS I: loss of thalamus volume; type: in vivo, human; settings: for thalamus volume, mean percentage change between Month 24 and baseline: ASCLEPIOS I
Protocol: (§1) In ASCLEPIOS I patients were randomised (1:1) to receive either ofatumumab 20 mg sc injections every 4 weeks (after an initial loading regimen of 20 mg sc doses on Days 1, 7 and 14) or teriflunomide 14 mg orally once daily, for up to 30 months. Patients aged 18-55 years with an Expanded Disability Status Scale (EDSS) score (according to Kurtzke, Neurology. 1983, November; 33(11): 1444-52) of 0-5.5 at screening who experienced ≥1 relapse in the past year or ≥2 relapses in the past 2 years or a positive gadolinium-enhancing (Gd+) MM scan during the year before randomisation were included.

MS patients [2] = assay: ASCLEPIOS I: MSIS-29 impact score; type: in vivo, human
Protocol: The MSIS-29 version 2 is a 29-item, self-administered questionnaire that includes 2 domains: physical and psychological. Responses were captured on a 4-point ordinal scale ranging from 1 (not at all) to 4 (extremely), with higher scores reflecting greater impact on day-to-day life. The MSIS-29 takes about 5 minutes to complete and the questions are designed to determine the patient's views about the impact of MS on their day-to-day life during the past 2 weeks. Reference is made to Hobart J and Cano S (2009), “Improving the evaluation of therapeutic interventions in multiple sclerosis: the role of new psychometric methods”, Health Technol Assess; 13(12):iii, ix-x, […] to Hobart J, Lamping D, Fitzpatrick R, et al (2001), “The Multiple Sclerosis Impact Scale (MSIS-29): a new patient-based outcome measure”, Brain; 124(Pt 5):962-73.
as §1

[3] = tested on: patients with multiple sclerosis; settings: cited from earlier work; for clinical and MRI course after anti-CD20 infusion: case reports, rebound after fingolimod cessation (Hatcher et al. 2016; Schmidt and Schulten 2019)
[4] = Half-life of ofatumumab at steady state; type: in vivo; settings: following subcutaneous administration of repeated 20 mg doses
[5] = tested on: patients with relapsing MS; assay: Gd-enhancing T1 lesion numbers in patients switched from an earlier DMT to ofatumumab (Example 2); type: in vivo, human
Protocol: (§2) The effect of ofatumumab administered to patients who have been treated with DMTs other than ofatumumab has been investigated as described below.
(§3) Ofatumumab was provided in pre-filled syringes for subcutaneous administration containing 20 mg ofatumumab (50 mg/ml, 0.4 ml content). The matching placebo to ofatumumab pre-filled syringe had the same appearance as the investigational drug.
(§4) Ofatumumab arm: ofatumumab 20 mg s.c. injections on Day 1, 7, 14, Week 4 (Study Month 1) and every 4 weeks thereafter+teriflunomide-matching placebo capsule orally once daily.
(§5) Eligible patients can be randomized in a 1:1 ratio to either the active ofatumumab 20 mg group or to the active teriflunomide 14 mg group. The randomization was stratified by geographical region and by MS subtype (RRMS, SPMS).
(§6) Diagnosis of MS according to the 2010 Revised McDonald criteria (Polman et al. 2011).
(§7) Relapsing MS: relapsing-remitting course (RRMS), or secondary progressive (SPMS) course with disease activity, as defined by Lublin et al., 2014.
(§8) Disability status at Screening with an EDSS score of 0 to 5.5 (inclusive).
(§9) Patients previously treated with DMT selected from glatiramer acetate, dimethyl fumarate (DMF), daclizumab, fingolimod, natalizumab and laquinimod.
(§10) Documentation of at least: 1 relapse during the previous 1 year OR 2 relapses during the previous 2 years prior to Screening OR a positive Gd-enhancing MM scan during the year prior to randomization. Note: Screening MRI scan may be used if no positive Gd enhancing scan exist from prior year.
(§11) Neurologically stable within 1 month prior to randomization
The following results were obtained for the Gd lesion numbers.

MS patients [6] = settings: cited from earlier work; for reduction in annualized relapse rate (ARR) compared to Aubagio (teriflunomide): p<0.001
primary human B cells [7] = assay: Ofatumumab-induced CDC of freshly isolated primary human B cells; type: cell-based; settings: antibody and 30% human serum added simultaneously, 1 hour, flow cytometry; compared to ocrelizumab and rituximab; FIG. 2
[8] = tested on: patients with relapsing MS; assay: Number of relapses in patients switched from an earlier DMT to ofatumumab (Example 2); type: in vivo, human; settings: for Mean NURLP12: number of relapses in past 12 months (screening) / Mean NURLP24a: number of relapses in past 24 months (screening): before switch
Protocol: as §2, §3, §4, §5, §6, §7, §8, §9, §10, §11

primary human B cells [9] = assay: CDC after delayed addition of complement; type: cell-based; settings: cells washed, complement source added after 6 hours; FIG. 3
Protocol: In a second experiment, B cells were incubated with antibody as described before, albeit in the absence of a source of complement. Cells were washed as described previously. After 6 hours, the source of complement was added.

[10] = earlier DMT fingolimod, ofatumumab 20 mg s.c.
[11] = earlier DMT fingolimod, ofatumumab 20 mg s.c., listed as OMB

C/C(O)=C(\C#N)C(=O)Nc1ccc(C(F)(F)F)cc1 [teriflunomide, reference compound]
thalamus volume, mean percentage change between Month 24 and baseline (MS patients [1]): −1.4% | mean change in MSIS-29 physical impact score from baseline (MS patients [2]; Month 6): −0.44 | mean change in MSIS-29 physical impact score from baseline (MS patients [2]; Month 12): 0.17 | mean change in MSIS-29 physical impact score from baseline (MS patients [2]; Month 18): 0.67 | mean change in MSIS-29 physical impact score from baseline (MS patients [2]; Month 24): 0.59 | mean change in MSIS-29 physical impact score from baseline (MS patients [2]; Month 30): 0.55

ocrelizumab: anti-CD20 mAb administered by intravenous infusion
clinical and MRI course after anti-CD20 infusion [3]: clinical worsening and new Gd-enhancing MRI lesions | EDSS course after administration ([3]; two patients, more than 3 months after fingolimod withdrawal, FIG. 1): significant Expanded Disability Status Scale (EDSS) progression

rituximab: anti-CD20 mAb administered by intravenous infusion
clinical and MRI course after anti-CD20 infusion [3]: clinical worsening; also recorded: persistent Gd-enhancing lesions

ofatumumab: recombinant human monoclonal immunoglobulin G1 (IgG1) antibody that binds to human CD20
half-life at steady state [4]: approximately 16 days | Mean Gd lesion number ([5]; earlier DMT DMF, BASELINE): 2.02 | Mean Gd lesion number ([5]; earlier DMT DMF, Week 48): 0 | Mean Gd lesion number ([5]; earlier DMT DMF, Week 96): 0 | Mean Gd lesion number ([5]; earlier DMT daclizumab, BASELINE): 0.18 | Mean Gd lesion number ([5]; earlier DMT daclizumab, Week 48): 0 | Mean Gd lesion number ([5]; earlier DMT daclizumab, Week 96): 0 | Mean Gd lesion number ([5]; earlier DMT fingolimod, BASELINE): 2.95 | Mean Gd lesion number ([5]; earlier DMT fingolimod, Week 48): 0.03 | Mean Gd lesion number ([5]; earlier DMT fingolimod, Week 96): 0 | Mean Gd lesion number ([5]; earlier DMT glatiramer acetate, BASELINE): 1.52 | Mean Gd lesion number ([5]; earlier DMT glatiramer acetate, Week 48): 0.02 | Mean Gd lesion number ([5]; earlier DMT glatiramer acetate, Week 96): 0.02 | Mean Gd lesion number ([5]; earlier DMT natalizumab, BASELINE): 2.5 | Mean Gd lesion number ([5]; earlier DMT natalizumab, Week 48): 0.04 | Mean Gd lesion number ([5]; earlier DMT natalizumab, Week 96): 0 | suppression of gadolinium (Gd) T1 lesions compared to Aubagio (MS patients [6]; ASCLEPIOS I/II): highly significant suppression | annualized relapse rate (ARR) (MS patients [6]; ASCLEPIOS I): 0.11 | reduction in annualized relapse rate (ARR) compared to Aubagio (teriflunomide) (MS patients [6]; ASCLEPIOS I): 50.5% | annualized relapse rate (ARR) (MS patients [6]; ASCLEPIOS II): 0.10 | reduction in annualized relapse rate (ARR) compared to Aubagio (teriflunomide) (MS patients [6]; ASCLEPIOS II): 58.5% | relative risk reduction in 3-month confirmed disability progression (CDP) versus Aubagio (MS patients [6]; pre-specified pooled analyses, p=0.002): 34.4% | relative risk reduction in 6-month confirmed disability progression (CDP) versus Aubagio (MS patients [6]; pre-specified pooled analyses, p=0.012): 32.5% | induction of CDC (B cell lysis, SYTOX Blue+ cells) (primary human B cells [7]): strong concentration-dependent induction | thalamus volume, mean percentage change between Month 24 and baseline (MS patients [1]): −1.00% | thalamus volume change, mean difference ofatumumab vs teriflunomide (MS patients [1]; Month 24, p=0.002): 0.40 | Mean NCFRLP12: number of relapses up to month 12 post-first dose ([8]; earlier DMT DMF): 0.21 | Mean NCFRLP24: number of relapses up to month 24 post-first dose ([8]; earlier DMT DMF): 0.39 | Mean NURLP12: number of relapses in past 12 months (screening) ([8]; earlier DMT DMF): 1.11 | Mean NURLP24a: number of relapses in past 24 months (screening) ([8]; earlier DMT DMF): 2 | Mean NCFRLP12: number of relapses up to month 12 post-first dose ([8]; earlier DMT daclizumab): 0 | Mean NCFRLP24: number of relapses up to month 24 post-first dose ([8]; earlier DMT daclizumab): 0 | Mean NURLP12: number of relapses in past 12 months (screening) ([8]; earlier DMT daclizumab): 1 | Mean NURLP24a: number of relapses in past 24 months (screening) ([8]; earlier DMT daclizumab): 1.18 | Mean NURLP12: number of relapses in past 12 months (screening) ([8]; earlier DMT fingolimod): approx. 1.26 | Mean NURLP24a: number of relapses in past 24 months (screening) ([8]; earlier DMT fingolimod): 2.28 | Mean NURLP12: number of relapses in past 12 months (screening) ([8]; earlier DMT fingolimod, listed as OMB): 1.26 | Mean NCFRLP12: number of relapses up to month 12 post-first dose [8, 10]: approx. 0.23 | Mean NCFRLP24: number of relapses up to month 24 post-first dose [8, 10]: about 0.30 | Mean NCFRLP12: number of relapses up to month 12 post-first dose [8, 11]: 0.23 | Mean NCFRLP24: number of relapses up to month 24 post-first dose [8, 11]: 0.31 | Mean NCFRLP12: number of relapses up to month 12 post-first dose ([8]; earlier DMT glatiramer acetate): 0.10 | Mean NCFRLP24: number of relapses up to month 24 post-first dose ([8]; earlier DMT glatiramer acetate): 0.17 | Mean NURLP12: number of relapses in past 12 months (screening) ([8]; earlier DMT glatiramer acetate): 1.21 | Mean NURLP24a: number of relapses in past 24 months (screening) ([8]; earlier DMT glatiramer acetate): 2.13 | Mean NCFRLP12: number of relapses up to month 12 post-first dose ([8]; earlier DMT natalizumab): 0.13 | Mean NCFRLP24: number of relapses up to month 24 post-first dose ([8]; earlier DMT natalizumab): 0.2 | Mean NURLP12: number of relapses in past 12 months (screening) ([8]; earlier DMT natalizumab): 1.2 | Mean NURLP24a: number of relapses in past 24 months (screening) ([8]; earlier DMT natalizumab): 2.37 | induction of CDC after delayed addition of complement (primary human B cells [9]): potently induced CDC | mean change in MSIS-29 physical impact score from baseline (MS patients [2]; Month 6): −2.75 | MSIS-29 physical impact score, mean difference ofatumumab vs teriflunomide (MS patients [2]; Month 6, p=0.017): −2.30 | mean change in MSIS-29 physical impact score from baseline (MS patients [2]; Month 12): −2.43 | MSIS-29 physical impact score, mean difference ofatumumab vs teriflunomide (MS patients [2]; Month 12, p=0.009): −2.59 | mean change in MSIS-29 physical impact score from baseline (MS patients [2]; Month 18): −2.37 | MSIS-29 physical impact score, mean difference ofatumumab vs teriflunomide (MS patients [2]; Month 18, p=0.005): −3.05 | mean change in MSIS-29 physical impact score from baseline (MS patients [2]; Month 24): −2.6 | MSIS-29 physical impact score, mean difference ofatumumab vs teriflunomide (MS patients [2]; Month 24, p=0.008): −3.19 | mean change in MSIS-29 physical impact score from baseline (MS patients [2]; Month 30): −3.21 | MSIS-29 physical impact score, mean difference ofatumumab vs teriflunomide (MS patients [2]; Month 30, p=0.026): −3.76 | MSIS-29 psychological impact score vs teriflunomide treatment group (MS patients [2]; difference statistically significant only at Month 12): stronger reduction
